Values joined by “and” are separate entries in the source; they are usually repeats but may differ in a detail not shown here. Equal entries are not always repeated. Inconclusive results and toxic doses are left out.
Test system: CD2F1 mice, L1210 leukemia ip, survival T/C
Test: NCI In Vivo Anticancer Drug Screen. Data for tumor model L1210 Leukemia (intraperitoneal) in CD2F1 (CDF1) mice
Settings: higher = longer survival
Outline: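 Implant tumor; dose compound or vehicle; measure endpoint in both groups; report treated divided by control.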

[1] = endpoint: mean survival time, dose: 25.0 mg/kg/injection, schedule: Q01DX009 (ip), vehicle: saline with Tween-80
[2] = endpoint: mean survival time, dose: 50.0 mg/kg/injection, schedule: Q01DX009 (ip), vehicle: saline with Tween-80
[3] = endpoint: mean survival time, dose: 100.0 mg/kg/injection, schedule: Q04DX003 (ip), vehicle: saline with Tween-80
[4] = endpoint: mean survival time, dose: 6.25 mg/kg/injection, schedule: Q01DX009 (ip), vehicle: saline with Tween-80
[5] = endpoint: mean survival time, dose: 12.5 mg/kg/injection, schedule: Q01DX009 (ip), vehicle: saline with Tween-80

## COc1cc(C)c(O)c(C[P+](c2ccccc2)(c2ccccc2)c2ccccc2)c1
[1]
  T/C: 98 % of control
[2]
  T/C: 94 % of control
endpoint: mean survival time, dose: 50.0 mg/kg/injection, schedule: Q04DX003 (ip), vehicle: saline with Tween-80
  T/C: 106 % of control
[3]
  T/C: 96 % of control

## Cc1ccc(S(=O)(=O)N(CCCc2c(C)nc(N)nc2Cl)c2ccccc2)cc1
endpoint: mean survival time, dose: 50.0 mg/kg/injection, schedule: Q01DX001 (ip), vehicle: Klucel (hydroxypropylcellulose) (HPC)
  T/C: 100 % of control
endpoint: mean survival time, dose: 100.0 mg/kg/injection, schedule: Q01DX001 (ip), vehicle: Klucel (hydroxypropylcellulose) (HPC)
  T/C: 104 % of control
endpoint: mean survival time, dose: 200.0 mg/kg/injection, schedule: Q01DX001 (ip), vehicle: Klucel (hydroxypropylcellulose) (HPC)
  T/C: 96 % of control

## COc1ccc(COc2ccc(Cl)cc2)cc1
endpoint: mean survival time, dose: 75.0 mg/kg/injection, schedule: Q04DX002 (ip), vehicle: saline with Tween-80
  T/C: 87 % of control
endpoint: mean survival time, dose: 150.0 mg/kg/injection, schedule: Q04DX002 (ip), vehicle: saline with Tween-80
  T/C: 98 % of control
endpoint: mean survival time, dose: 300.0 mg/kg/injection, schedule: Q04DX002 (ip), vehicle: saline with Tween-80
  T/C: 106 % of control

## Cc1ncc(CO)c(/C=N/NC(N)=S)c1O
endpoint: mean survival time, dose: 100.0 mg/kg/injection, schedule: Q01DX001 (ip), vehicle: saline
  T/C: 101 % of control
endpoint: mean survival time, dose: 200.0 mg/kg/injection, schedule: Q01DX001 (ip), vehicle: saline
  T/C: 100 % of control
endpoint: mean survival time, dose: 400.0 mg/kg/injection, schedule: Q01DX001 (ip), vehicle: saline
  T/C: 101 % of control

## O=C(O)C(=O)C(O)C(O)C(O)CO.O=C(O)C(=O)C(O)C(O)C(O)CO.[NH-]C1CCCCC1[NH-].[Pt+2] (stereo unspecified)
endpoint: median survival time, dose: 3.12 mg/kg/injection, schedule: Q04DX003 (ip), vehicle: saline
  T/C: 110 % of control and 111 % of control
endpoint: median survival time, dose: 6.25 mg/kg/injection, schedule: Q04DX003 (ip), vehicle: saline
  T/C: 115 % of control and 112 % of control
endpoint: median survival time, dose: 12.5 mg/kg/injection, schedule: Q04DX003 (ip), vehicle: saline
  T/C: 122 % of control
endpoint: median survival time, dose: 50.0 mg/kg/injection, schedule: Q04DX003 (ip), vehicle: saline
  T/C: 185 % of control and 188 % of control
endpoint: median survival time, dose: 100.0 mg/kg/injection, schedule: Q04DX003 (ip), vehicle: saline
  T/C: 250 % of control and 270 % of control
endpoint: median survival time, dose: 200.0 mg/kg/injection, schedule: Q04DX003 (ip), vehicle: saline
  T/C: 175 % of control

## CCn1c(=O)c2[nH]c(Cl)nc2n(CC)c1=O
endpoint: mean survival time, dose: 25.0 mg/kg/injection, schedule: Q04DX003 (ip), vehicle: Klucel (hydroxypropylcellulose) (HPC)
  T/C: 102 % of control
endpoint: mean survival time, dose: 50.0 mg/kg/injection, schedule: Q04DX003 (ip), vehicle: Klucel (hydroxypropylcellulose) (HPC)
  T/C: 105 % of control
endpoint: mean survival time, dose: 100.0 mg/kg/injection, schedule: Q04DX003 (ip), vehicle: Klucel (hydroxypropylcellulose) (HPC)
  T/C: 107 % of control

## CCCC(C(=O)O)C1=CCCC1 (stereo unspecified)
[1]
  T/C: 102 % of control
[2]
  T/C: 102 % of control
endpoint: mean survival time, dose: 100.0 mg/kg/injection, schedule: Q01DX009 (ip), vehicle: saline with Tween-80
  T/C: 100 % of control

## Nc1ccc(C(OC(=O)c2cc3ccccc3c(Cc3c(O)c(C(=O)OC(c4ccc(N)cc4)(c4ccc(N)cc4)c4ccc(N)cc4)cc4ccccc34)c2O)(c2ccc(N)cc2)c2ccc(N)cc2)cc1
endpoint: mean survival time, dose: 0.78 mg/kg/injection, schedule: Q01DX009 (ip), vehicle: saline with Tween-80
  T/C: 100 % of control and 111 % of control
endpoint: mean survival time, dose: 1.56 mg/kg/injection, schedule: Q01DX009 (ip), vehicle: saline with Tween-80
  T/C: 123 % of control and 102 % of control
endpoint: mean survival time, dose: 3.12 mg/kg/injection, schedule: Q01DX009 (ip), vehicle: saline with Tween-80
  T/C: 105 % of control
endpoint: mean survival time, dose: 3.13 mg/kg/injection, schedule: Q01DX009 (ip), vehicle: saline with Tween-80
  T/C: 101 % of control
[4]
  T/C: 104 % of control and 107 % of control
[5]
  T/C: 88 % of control and 110 % of control
[1]
  T/C: 101 % of control

## CC(C)C(C=O)C(O)(C(F)(F)F)C(F)(F)Cl (stereo unspecified)
[3]
  T/C: 91 % of control

## O=C1OCC(Cl)=C1Cl
[4]
  T/C: 96 % of control
[5]
  T/C: 94 % of control
[1]
  T/C: 98 % of control

Source: PubChem BioAssay AID256 (DTP/NCI, 2004)
